# From patent US8044079B2, “Substituted oxindole derivatives, medicaments containing said derivatives and use thereof” (Abbott GmbH & Co. KG, priority 2005, dated 2011)
# Target: T1, human vasopressin V1b receptor (Homo sapiens, UniProt P47901)
# T1 construct: expressed in transfected cells; host or cells: CHO-K1 (cell line hV1b_3H2_CHO), membrane preparation
# T1 sequence (P47901 1-424): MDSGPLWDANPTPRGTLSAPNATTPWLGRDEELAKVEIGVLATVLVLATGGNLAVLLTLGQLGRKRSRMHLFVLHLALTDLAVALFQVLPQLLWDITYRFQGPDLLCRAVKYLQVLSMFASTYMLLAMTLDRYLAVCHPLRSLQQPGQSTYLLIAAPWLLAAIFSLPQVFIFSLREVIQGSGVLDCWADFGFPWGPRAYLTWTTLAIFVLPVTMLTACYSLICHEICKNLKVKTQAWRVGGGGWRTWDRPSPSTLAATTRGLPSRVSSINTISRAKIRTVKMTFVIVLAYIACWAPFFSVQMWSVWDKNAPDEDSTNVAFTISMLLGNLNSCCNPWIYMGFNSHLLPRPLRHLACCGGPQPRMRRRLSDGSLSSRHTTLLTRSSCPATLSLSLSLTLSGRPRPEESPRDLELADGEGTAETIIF
# Assay: Vasopressin V1b receptor binding test
# Details: membranes of CHO-K1 cells with human V1b receptor, displacement of 1.5 nM 3H-AVP; for compounds with more than one stereogenic center the diastereomer with greater affinity
# Procedure, shortened: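 Radioligand displacement on membranes carrying human V1b receptor in 50 mM tris, 10 mM MgCl2, 0.1% BSA, pH 7.4, 2% DMSO final; 60 min at room temperature, nonspecific binding with 1 μM AVP. Free ligand removed by filtration, bound counted by liquid scintillation, Ki from nonlinear regression of triplicates.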
row,Structure (SMILES),Ki [nM]
1,"COc1ccc(S(=O)(=O)N2C(=O)C(c3ccc(CN4CCN(CCO)CC4)cc3OC)(N3CCC[C@H]3c3ncco3)c3cc(C#N)ccc32)cc1 (stereo partly drawn) [Example 147, 5-Cyano-3-{4-[4-(2-hydroxyethyl)piperazin-1-ylmethyl]-2-methoxyphenyl}-1-(4-methoxybenzenesulfonyl)-3-((S)-2-oxazol-2-yl-pyrrolidin-1-yl)-1,3-dihydroindol-2-one]",< 10
2,"CCN1CCN(Cc2ccc(C3(N4CCC[C@H]4c4ncco4)C(=O)N(S(=O)(=O)c4ccc(OC)cc4)c4ccc(C#N)cc43)c(OC)c2)CC1 (stereo partly drawn) [Example 148, 5-Cyano-3-[4-(4-ethylpiperazin-1-ylmethyl)-2-methoxyphenyl]-1-(4-methoxybenzenesulfonyl)-3-((S)-2-oxazol-2-yl-pyrrolidin-1-yl)-1,3-dihydroindol-2-one]",< 10
3,"COc1ccc(S(=O)(=O)N2C(=O)C(c3cc(CN(C)C)ccc3OC)(N3C[C@H](O)C[C@H]3c3ncco3)c3cc(C#N)ccc32)cc1 (stereo partly drawn) [Example 150, 5-Cyano-3-(5-dimethylaminomethyl-2-methoxyphenyl)-3-((2S,4R)-4-hydroxy-2-oxazol-2-yl-pyrrolidin-1-yl)-1-(4-methoxybenzenesulfonyl)-1,3-dihydroindol-2-one]",< 10
4,"CCNCc1ccc(OC)c(C2(N3C[C@H](O)C[C@H]3c3ncco3)C(=O)N(S(=O)(=O)c3ccc(OC)cc3)c3ccc(C#N)cc32)c1 (stereo partly drawn) [Example 151, 5-Cyano-3-(5-ethylaminomethyl-2-methoxyphenyl)-3-((2S,4R)-4-hydroxy-2-oxazol-2-yl-pyrrolidin-1-yl)-1-(4-methoxybenzenesulfonyl)-1,3-dihydroindol-2-one]",< 10
5,"CCN1CCN(Cc2ccc(C3(N4CCC[C@H]4c4ncco4)C(=O)N(S(=O)(=O)c4ccc(C#N)cc4)c4ccc(Cl)cc43)c(OC)c2)CC1 (stereo partly drawn) [Example 152, 5-Chloro-3-[4-(4-ethylpiperazin-1-ylmethyl)-2-methoxyphenyl]-3-((S)-2-oxazol-2-yl-pyrrolidin-1-yl)-1-(4-cyanobenzenesulfonyl)-1,3-dihydroindol-2-one]",< 10
6,"COc1ccc(S(=O)(=O)N2C(=O)C(c3ccc(CN4CCNCC4)cc3OC)(N3CCC[C@H]3c3ncco3)c3cc(C#N)ccc32)cc1 (stereo partly drawn) [Example 153, 5-Cyano-1-(4-methoxybenzenesulfonyl)-3-(2-methoxy-4-piperazin-1-ylmethylphenyl)-3-((S)-2-oxazol-2-yl-pyrrolidin-1-yl)-1,3-dihydroindol-2-one]",< 10
7,"COc1ccc(S(=O)(=O)N2C(=O)C(c3ccc(CNCCO)cc3OC)(N3CCC[C@H]3c3ncco3)c3cc(C#N)ccc32)cc1 (stereo partly drawn) [Example 154, 5-Cyano-3-{4-[(2-hydroxyethylamino)methyl]-2-methoxyphenyl}-1-(4-methoxybenzenesulfonyl)-3-((S)-2-oxazol-2-yl-pyrrolidin-1-yl)-1,3-dihydroindol-2-one]",< 10
8,"CNCc1ccc(OC)c(C2(N3CCCC3c3nccs3)C(=O)N(S(=O)(=O)c3ccc(OC)cc3)c3ccc(Cl)cc32)c1 (centres unmarked) [Example 155, 5-Chloro-1-(4-methoxybenzenesulfonyl)-3-(2-methoxy-5-methylaminomethylphenyl)-3-(2-thiazol-2-yl-pyrrolidin-1-yl)-1,3-dihydroindol-2-one]",< 10
9,"COc1cc(CN(C)C)ccc1C1(N2CCC[C@H]2c2ncco2)C(=O)N(S(=O)(=O)c2ccc(C#N)cc2)c2ccc(Cl)cc21 (stereo partly drawn) [Example 156, 5-Chloro-3-(4-dimethylaminomethyl-2-methoxyphenyl)-3-((S)-2-oxazol-2-yl-pyrrolidin-1-yl)-1-(4-cyanobenzenesulfonyl)-1,3-dihydroindol-2-one]",10 to 100
10,"COc1cc(CN2CCCC2)ccc1C1(N2CCC[C@H]2c2ncco2)C(=O)N(S(=O)(=O)c2ccc(C#N)cc2)c2ccc(Cl)cc21 (stereo partly drawn) [Example 157, 5-Chloro-3-(2-methoxy-4-pyrrolidin-1-ylmethylphenyl)-3-((S)-2-oxazol-2-yl-pyrrolidin-1-yl)-1-(4-cyanobenzenesulfonyl)-1,3-dihydroindol-2-one]",10 to 100
11,"COc1cc(CN2CCN(C)CC2)ccc1C1(N2CCC[C@H]2c2ncco2)C(=O)N(S(=O)(=O)c2ccc(C#N)cc2)c2ccc(Cl)cc21 (stereo partly drawn) [Example 158, 5-Chloro-3-[2-methoxy-4-(4-methylpiperazin-1-ylmethyl)phenyl]-3-((S)-2-oxazol-2-yl-pyrrolidin-1-yl)-1-(4-cyanobenzenesulfonyl)-1,3-dihydroindol-2-one]",< 10
12,"CCCNCc1ccc(C2(N3CCC[C@H]3c3ncco3)C(=O)N(S(=O)(=O)c3ccc(C#N)cc3)c3ccc(Cl)cc32)c(OC)c1 (stereo partly drawn) [Example 159, 5-Chloro-3-(2-methoxy-4-propylaminomethylphenyl)-3-((S)-2-oxazol-2-yl-pyrrolidin-1-yl)-1-(4-cyanobenzenesulfonyl)-1,3-dihydroindol-2-one]",10 to 100
13,"COc1ccc(S(=O)(=O)N2C(=O)C(c3cc(CN4CCNCC4)ccc3OC)(N3C[C@H](O)C[C@H]3c3ncco3)c3cc(C#N)ccc32)cc1 (stereo partly drawn) [Example 160, 5-Cyano-3-((2S,4R)-4-hydroxy-2-oxazol-2-yl-pyrrolidin-1-yl)-1-(4-methoxybenzenesulfonyl)-3-(2-methoxy-5-piperazin-1-ylmethylphenyl)-1,3-dihydroindol-2-one]",< 10
14,"C=CCNCc1ccc(OC)c(C2(N3CCC[C@H]3c3ncco3)C(=O)N(S(=O)(=O)c3ccc(OC)cc3)c3ccc(Cl)cc32)c1 (stereo partly drawn) [Example 161, 5-Chloro-3-(5-allylaminomethyl-2-methoxyphenyl)-1-(4-methoxybenzenesulfonyl)-3-((S)-2-oxazol-2-yl-pyrrolidin-1-yl)-1,3-dihydroindol-2-one]",< 10
15,"COc1cc(CN2CCNCC2)ccc1C1(N2CCC[C@H]2c2ncco2)C(=O)N(S(=O)(=O)c2ccc(C#N)cc2)c2ccc(Cl)cc21 (stereo partly drawn) [Example 162, 5-Chloro-3-(2-methoxy-4-piperazin-1-ylmethylphenyl)-3-((S)-2-oxazol-2-yl-pyrrolidin-1-yl)-1-(4-cyanobenzenesulfonyl)-1,3-dihydroindol-2-one]",< 10
16,"CNCc1ccc(OC)c(C2(N3C[C@H](O)C[C@H]3c3ncco3)C(=O)N(S(=O)(=O)c3ccc(OC)cc3)c3ccc(C#N)cc32)c1 (stereo partly drawn) [Example 163, 5-Cyano-3-((2S,4R)-4-hydroxy-2-oxazol-2-yl-pyrrolidin-1-yl)-1-(4-methoxybenzenesulfonyl)-3-(2-methoxy-5-methylaminomethylphenyl)-1,3-dihydroindol-2-one]",< 10
17,"COc1ccc(S(=O)(=O)N2C(=O)C(c3cc(CN4CCN(C)CC4)cnc3OC)(N3CCC[C@H]3c3ncco3)c3cc(Cl)ccc32)cc1 (stereo partly drawn) [Example 164, 5-Chloro-1-(4-methoxybenzenesulfonyl)-3-[2-methoxy-5-(4-methylpiperazin-1-ylmethyl)pyridin-3-yl]-3-((S)-2-oxazol-2-yl-pyrrolidin-1-yl)-1,3-dihydroindol-2-one]",< 10
18,"COc1ccc(S(=O)(=O)N2C(=O)C(c3ccc(CN4CCN(C)CC4)cc3OC)(N3C[C@H](O)C[C@H]3c3ncco3)c3cc(Cl)ccc32)cc1 (stereo partly drawn) [Example 165, 5-Chloro-3-((2S,4R)-4-hydroxy-2-oxazol-2-yl-pyrrolidin-1-yl)-1-(4-methoxybenzenesulfonyl)-3-[2-methoxy-4-(4-methylpiperazin-1-ylmethyl)phenyl]-1,3-dihydroindol-2-one]",< 10
19,"COc1ccc(S(=O)(=O)N2C(=O)C(c3ccc(CN4CCN(C(C)C)CC4)cc3OC)(N3C[C@H](O)C[C@H]3c3ncco3)c3cc(Cl)ccc32)cc1 (stereo partly drawn) [Example 166, 5-Chloro-3-((2S,4R)-4-hydroxy-2-oxazol-2-yl-pyrrolidin-1-yl)-3-[4-(4-isopropylpiperazin-1-ylmethyl)-2-methoxyphenyl]-1-(4-methoxybenzenesulfonyl)-1,3-dihydroindol-2-one]",< 10
20,"CNCc1cnc(OC)c(C2(N3CCC[C@H]3c3ncco3)C(=O)N(S(=O)(=O)c3ccc(OC)cc3)c3ccc(Cl)cc32)c1 (stereo partly drawn) [Example 167, 5-Chloro-1-(4-methoxybenzenesulfonyl)-3-(2-methoxy-5-methylaminomethylpyridin-3-yl)-3-((S)-2-oxazol-2-yl-pyrrolidin-1-yl)-1,3-dihydroindol-2-one]",< 10
21,"COc1ccc(S(=O)(=O)N2C(=O)C(c3cc(CNC4CC4)ccc3OC)(N3CCC[C@H]3c3ncco3)c3cc(Cl)ccc32)cc1 (stereo partly drawn) [Example 168, 5-Chloro-3-(5-cyclopropylaminomethyl-2-methoxyphenyl)-1-(4-methoxybenzenesulfonyl)-3-((S)-2-oxazol-2-yl-pyrrolidin-1-yl)-1,3-dihydroindol-2-one]",< 10
22,"COc1ccc(S(=O)(=O)N2C(=O)C(c3ccc(CN4CCCCC4)cc3OC)(N3C[C@H](O)C[C@H]3c3ncco3)c3cc(Cl)ccc32)cc1 (stereo partly drawn) [Example 169, 5-Chloro-3-((2S,4R)-4-hydroxy-2-oxazol-2-yl-pyrrolidin-1-yl)-1-(4-methoxybenzenesulfonyl)-3-(2-methoxy-4-piperidin-1-ylmethylphenyl)-1,3-dihydroindol-2-one]",< 10
23,"CCN(C)Cc1ccc(C2(N3C[C@H](O)C[C@H]3c3ncco3)C(=O)N(S(=O)(=O)c3ccc(OC)cc3)c3ccc(Cl)cc32)c(OC)c1 (stereo partly drawn) [Example 170, 5-Chloro-3-{4-[(ethylmethylamino)methyl]-2-methoxyphenyl}-3-((2S,4R)-4-hydroxy-2-oxazol-2-yl-pyrrolidin-1-yl)-1-(4-methoxybenzenesulfonyl)-1,3-dihydroindol-2-one]",< 10
